Results reported in patent publication US11753407B2, “Compounds for treating spinal muscular atrophy” (PTC Therapeutics, Inc., priority 2012, dated 2023).

How the values were obtained:
[1] = test system: SMN2 minigene mRNA (SMN2-A minigene) in HEK293H cells; assay: SMN2 minigene mRNA splicing RT-qPCR assay in cultured cells; format: cell-based, human; settings: Homo sapiens, HEK293-H; concentration increasing full length SMN2 mRNA 1.5-fold relative to vehicle-treated cells; HEK293H cells with SMN2-A minigene, 24 hours, 7-point concentration data; read-out: EC1.5x for production of full length SMN2 mRNA
Procedure, shortened: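 Potency reflects the concentration that lifts full-length SMN2 minigene mRNA 1.5-fold above vehicle in stably transfected HEK293H cells after 24 h of treatment. Transcript abundance came from RT-qPCR as (1+E)^−Ct, normalized to GAPDH; endogenous SMN1/SMN2 are not detected.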

[2] = test system: Smn protein in SMA patient fibroblast cells (GM03813); assay: Smn protein assay in cultured cells (SMN HTRF); format: cell-based, human; settings: SMA patient fibroblast cells, 48 hours; for EC1.5x for Smn protein expression: 7-point concentration curve, SMN HTRF, concentration producing 1.5 times Smn protein vs DMSO vehicle control; for maximum fold (Fold) increase of Smn protein: 7-point concentration data, fold relative to vehicle control
Procedure, shortened: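 Smn protein abundance in treated SMA fibroblasts was measured by HTRF after 48 h compound exposure. The reported EC1.5× is the concentration producing 1.5 times vehicle Smn levels.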

Row | Structure (SMILES) | EC (1.5-fold increase) [1] [µM] | EC1.5x for Smn protein expression [2] | maximum fold (Fold) increase of Smn protein [2]
1 | Cc1cn2nc(-c3cc(=O)n4cc(C5=CCN(C)CC5)cc(C)c4n3)cc2c(C)n1 [Compound 481, 2-(4,6-dimethylpyrazolo[1,5-a]pyrazin-2-yl)-9-methyl-7-(1-methyl-1,2,3,6-tetrahydropyridin-4-yl)-4H-pyrido[1,2-a]pyrimidin-4-one] | < 0.1 | **** (an EC1.5x≤0.3 μM is indicated by four stars (****)) | **** (a fold increase between >1.5 and ≤1.65 is indicated by four stars (****))
2 | Cc1cn2nc(-c3cc(=O)n4cc(CCCN)ccc4n3)cc2c(C)n1 [Compound 742, 7-(3-aminopropyl)-2-(4,6-dimethylpyrazolo[1,5-a]pyrazin-2-yl)-4H-pyrido[1,2-a]pyrimidin-4-one] | 0.1 to 0.3 | *** (an EC1.5× between >0.3 μM and ≤1 μM is indicated by three stars (***)) | ***** (a fold increase >1.65 is indicated by five stars (*****))
3 | CCc1nc(C)cn2nc(-c3cc(=O)n4cc(NCCN(C)C)ccc4n3)cc12 [Compound 824, 7-{[2-(dimethylamino)ethyl]amino}-2-(4-ethyl-6-methylpyrazolo[1,5-a]pyrazin-2-yl)-4H-pyrido[1,2-a]pyrimidin-4-one] | 0.3 to 1 | * (An EC1.5× for Smn protein expression between >3 μM and ≤10 μM is indicated by one star (*)) | **** (a fold increase between >1.5 and ≤1.65 is indicated by four stars (****))
4 | CCc1nc(C)cn2nc(-c3cc(=O)n4cc(N(C)CCNC)ccc4n3)cc12 [Compound 826, 2-(4-ethyl-6-methylpyrazolo[1,5-a]pyrazin-2-yl)-7-{methyl[2-(methylamino)ethyl]amino}-4H-pyrido[1,2-a]pyrimidin-4-one] | 0.1 to 0.3 | ** (an EC1.5× between >1 μM and ≤3 μM is indicated by two stars (**)) | ***** (a fold increase >1.65 is indicated by five stars (*****))
5 | Cc1cn2nc(-c3cc(=O)n4cc(N5CCC6(CC5)CNC6)ccc4n3)cc2c(C)n1 [Compound 804, 7-(2,7-diazaspiro[3.5]non-7-yl)-2-(4,6-dimethylpyrazolo[1,5-a]pyrazin-2-yl)-4H-pyrido[1,2-a]pyrimidin-4-one] | < 0.1 | **** (an EC1.5x≤0.3 μM is indicated by four stars (****)) | ***** (a fold increase >1.65 is indicated by five stars (*****))
6 | Cc1cn2nc(-c3cc(=O)n4cc(C5CCN(C)CC5)cc(C)c4n3)cc2c(C)n1 [Compound 672, 2-(4,6-dimethylpyrazolo[1,5-a]pyrazin-2-yl)-9-methyl-7-(1-methylpiperidin-4-yl)-4H-pyrido[1,2-a]pyrimidin-4-one] | < 0.1 | **** (an EC1.5x≤0.3 μM is indicated by four stars (****)) | ***** (a fold increase >1.65 is indicated by five stars (*****))
7 | COc1ccc(-c2cc(=O)n3cc(N4CCNC[C@H]4C)ccc3n2)cc1OC [Compound 321, 2-(3,4-dimethoxyphenyl)-7-[(2R)-2-methylpiperazin-1-yl]-4H-pyrido[1,2-a]pyrimidin-4-one] | 1 to 3 |  | *** (a fold increase between >1.35 and ≤1.5 is indicated by three stars (***))
8 | Cc1cn2cc(-c3cc(=O)n4cc(N5CCN(C)CC5)ccc4n3)cc(F)c2n1 [Compound 269, 2-(8-fluoro-2-methylimidazo[1,2-a]pyridin-6-yl)-7-(4-methylpiperazin-1-yl)-4H-pyrido[1,2-a]pyrimidin-4-one] | < 0.1 | **** (an EC1.5x≤0.3 μM is indicated by four stars (****)) | ***** (a fold increase >1.65 is indicated by five stars (*****))
9 | CCc1nc(C)cn2nc(-c3cc(=O)n4cc(C5=CCNCC5)cc(C)c4n3)cc12 [Compound 773, 2-(4-ethyl-6-methylpyrazolo[1,5-a]pyrazin-2-yl)-9-methyl-7-(1,2,3,6-tetrahydropyridin-4-yl)-4H-pyrido[1,2-a]pyrimidin-4-one] | < 0.1 | **** (an EC1.5x≤0.3 μM is indicated by four stars (****)) | ***** (a fold increase >1.65 is indicated by five stars (*****))
10 | Cc1cn2cc(-c3ccc4nc(C5=CCNCC5)cc(=O)n4c3)cc(F)c2n1 [Compound 372, 7-(8-fluoro-2-methylimidazo[1,2-a]pyridin-6-yl)-2-(1,2,3,6-tetrahydropyridin-4-yl)-4H-pyrido[1,2-a]pyrimidin-4-one] | < 0.1 | **** (an EC1.5x≤0.3 μM is indicated by four stars (****)) | ***** (a fold increase >1.65 is indicated by five stars (*****))
11 | CCc1nc(C)cn2nc(-c3cc(=O)n4cc(N5CC[C@@H](N(C)C)C5)ccc4n3)cc12 [Compound 814, 7-[(3R)-3-(dimethylamino)pyrrolidin-1-yl]-2-(4-ethyl-6-methylpyrazolo[1,5-a]pyrazin-2-yl)-4H-pyrido[1,2-a]pyrimidin-4-one] | < 0.1 | **** (an EC1.5x≤0.3 μM is indicated by four stars (****)) | ***** (a fold increase >1.65 is indicated by five stars (*****))
12 | CCc1nc(C)cn2nc(-c3cc(=O)n4cc(OCC5CCNCC5)ccc4n3)cc12 [Compound 831, 2-(4-ethyl-6-methylpyrazolo[1,5-a]pyrazin-2-yl)-7-(piperidin-4-ylmethoxy)-4H-pyrido[1,2-a]pyrimidin-4-one] | 0.1 to 0.3 | ** (an EC1.5× between >1 μM and ≤3 μM is indicated by two stars (**)) | **** (a fold increase between >1.5 and ≤1.65 is indicated by four stars (****))
13 | CCc1nc(C)cn2nc(-c3cc(=O)n4cc(OCCN(C)C)ccc4n3)cc12 [Compound 830, 7-[2-(dimethylamino)ethoxy]-2-(4-ethyl-6-methylpyrazolo[1,5-a]pyrazin-2-yl)-4H-pyrido[1,2-a]pyrimidin-4-one] | < 0.1 | *** (an EC1.5× between >0.3 μM and ≤1 μM is indicated by three stars (***)) | ***** (a fold increase >1.65 is indicated by five stars (*****))
14 | CCN1CCN(c2ccc3nc(-c4cc(C)c5nc(C)cn5c4)cc(=O)n3c2)CC1 [Compound 819, 2-(2,8-dimethylimidazo[1,2-a]pyridin-6-yl)-7-(4-ethylpiperazin-1-yl)-4H-pyrido[1,2-a]pyrimidin-4-one] | < 0.1 | **** (an EC1.5x≤0.3 μM is indicated by four stars (****)) | ***** (a fold increase >1.65 is indicated by five stars (*****))
